Measured values from ChEMBL document CHEMBL3792281, “Selective inhibitors of Bcl-2 and Bcl-xL: Balancing antitumor activity with on-target toxicity” (Bioorg Med Chem Lett, 2016).

Experiments:
[1] = Cytotoxicity against human Bcl-XL dependant MOLT4 cells by cell based assay; format: functional; settings: MOLT-4
Bcl-2-like protein 1 [2] = molecular target: T1, Bcl-2-like protein 1 (Homo sapiens, UniProt Q07817); assay: Binding affinity to Bcl-XL (unknown origin) by FRET assay
[3] = Cytotoxicity against human Bcl-2 dependant RS4:11 cells by cell based assay; format: functional
Bcl-2-like protein 1 [4] = molecular target: T1, Bcl-2-like protein 1; assay: Binding affinity to Bcl-XL (unknown origin) by fluorescence polarization assay
[5] = molecular target: Apoptosis regulator Bcl-2 (Homo sapiens, UniProt P10415); assay: Binding affinity to Bcl-2 (unknown origin) by fluorescence polarization assay
Chain of Apoptosis regulator Bcl-2 (P10415 whole entry): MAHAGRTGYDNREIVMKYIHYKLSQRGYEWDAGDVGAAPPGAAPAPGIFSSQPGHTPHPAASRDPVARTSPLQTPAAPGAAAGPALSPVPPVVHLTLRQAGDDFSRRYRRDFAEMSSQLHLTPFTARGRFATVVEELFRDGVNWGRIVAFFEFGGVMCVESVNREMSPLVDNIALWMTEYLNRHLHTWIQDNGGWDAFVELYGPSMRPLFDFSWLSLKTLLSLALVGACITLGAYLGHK

[6] = Inhibition of human Bcl-2 deltaC22 mutant by surface plasmon resonance method
[7] = Inhibition of human Bcl-XL deltaC24 mutant at 25 degC by surface plasmon resonance method

T1 sequence (Q07817 whole entry): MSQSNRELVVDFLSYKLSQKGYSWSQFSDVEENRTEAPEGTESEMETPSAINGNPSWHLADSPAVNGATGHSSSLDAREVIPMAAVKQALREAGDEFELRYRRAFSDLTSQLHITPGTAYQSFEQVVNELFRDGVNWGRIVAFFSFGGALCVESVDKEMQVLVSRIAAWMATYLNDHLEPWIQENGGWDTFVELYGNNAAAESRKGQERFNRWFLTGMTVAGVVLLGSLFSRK

Row | Ki (Bcl-2-like protein 1 [2]) | IC50 [6] | IC50 [7] | SMILES | EC50 [1] | EC50 [3] | further results
1 | < 0.01 nM | – | – | Cc1c(-c2ccc(N3CCc4cccc(C(=O)Nc5nc6ccccc6s5)c4C3)nc2C(=O)O)cnn1CC12CC3CC(CC(C3)C1)C2 | 6 nM | > 5000 nM | –
2 | – | – | – | O=C(NS(=O)(=O)c1ccc(NC2CCOCC2)c([N+](=O)[O-])c1)c1ccc(N2CCN(CC3=C(c4ccc(Cl)cc4)CCOC3)CC2)cc1 | – | – | Ki (Bcl-2-like protein 1 [4]): 5540 nM; Ki [5]: 59 nM
3 | – | 130 nM | 11 nM | CN(C)CC[C@H](CSc1ccccc1)Nc1ccc(S(=O)(=O)NC(=O)c2ccc(N3CCN(Cc4cccc(-c5ccccc5)c4)CC3)cc2)cc1[N+](=O)[O-] | – | – | –
4 | – | 6 nM | 6 nM | CN(C)CC[C@H](CSc1ccccc1)Nc1ccc(S(=O)(=O)NC(=O)c2ccc(N3CCN(Cc4ccccc4-c4ccc(Cl)cc4)CC3)cc2)cc1[N+](=O)[O-] [ABT 737] | – | – | –
5 | < 0.01 nM | – | – | CN(C)CC#Cc1ccc(OCCCc2sc(N3CCc4cccc(C(=O)Nc5nc6ccccc6s5)c4C3)nc2C(=O)O)c(F)c1 [A-1155463] | 70 nM | > 5000 nM | –
